In ChEMBL document CHEMBL6092215, “A Prostate-Specific Membrane Antigen-Targeting Small Molecule-Drug Conjugate Strategy to Overcome the Hematological Toxicity of Olaparib” (J Med Chem, 2024) one finds IC50 and CC50 data, which are given here for 22 compounds.

One series concerns CWR22R. In words: Antiproliferative activity against human 22Rv1 cells with high PSMA expression assessed as effect on cell viability incubated for 72 hrs by MTT assay. Format: functional, cell-based. To be noted: 22Rv1, 72 h. In general terms: Formazan colour is commonly taken as a measure of viable cells.
A further series concerns PC-3. As to the kind of experiment: Antiproliferative activity against PSMA negative human PC-3 cells assessed as effect on cell viability incubated for 72 hrs by MTT assay. The class given is functional.
A further series has as its system LNCaP. In words: Antiproliferative activity against human LNCaP cells with high PSMA expression assessed as effect on cell viability incubated for 72 hrs by MTT assay. Format: functional, cell-based.
Series [1] is described as follows: Antiproliferative activity against PSMA negative human RWPE-1 cells assessed as effect on cell viability incubated for 72 hrs by MTT assay. The following applies: RWPE-1 cells (PSMA negative). Format: toxicity, cell-based.

For the compound `O=C(O)CC[C@H](NC(=O)N[C@@H](CCCCNC(=O)CCCNC(=O)CCCCCCC(=O)N1CCN(C(=O)c2cc(Cc3n[nH]c(=O)c4ccccc34)ccc2F)CC1)C(=O)O)C(=O)O`, the IC50 was 208 µM in the series with CWR22R and 238 µM in the series on LNCaP. Moreover, the CC50 in the series with PC-3 is greater than 1000 µM. Also, the CC50 at 72 h in series [1] is greater than 1000 µM.
Take `CC[C@@H](C)[C@H](NC(=O)CCC(=O)NCCCC[C@H](NC(=O)N[C@@H](CCC(=O)O)C(=O)O)C(=O)O)C(=O)N1CCN(C(=O)c2cc(Cc3n[nH]c(=O)c4ccccc34)ccc2F)CC1`: the IC50 was 126 µM in the series on CWR22R and 135 µM in the series on LNCaP. Besides, the CC50 in the series with PC-3 was greater than 1000 µM. Moreover, the CC50 at 72 h in series [1] was greater than 1000 µM.
Take `CN(CC(=O)N1CCN(C(=O)c2cc(Cc3n[nH]c(=O)c4ccccc34)ccc2F)CC1)C(=O)CCC(=O)NCCCC[C@H](NC(=O)N[C@@H](CCC(=O)O)C(=O)O)C(=O)O`: the IC50 in the series on CWR22R was 129 µM; in the series on LNCaP it was 136 µM. Besides, the CC50 with PC-3 was greater than 1000 µM. In addition, in series [1], the CC50 at 72 h was greater than 1000 µM.
For the compound `O=C(O)CC[C@H](NC(=O)N[C@@H](CCCCNC(=O)CCNC(=O)N1CCN(C(=O)c2cc(Cc3n[nH]c(=O)c4ccccc34)ccc2F)CC1)C(=O)O)C(=O)O`, the IC50 in the series with CWR22R turned out to be 327 µM; with LNCaP, 273 µM. Moreover, in the series on PC-3, the CC50 is greater than 1000 µM. In series [1], the CC50 at 72 h was greater than 1000 µM.
In the case of `NC(=O)NCCC[C@H](NC(=O)CCC(=O)NCCCC[C@H](NC(=O)N[C@@H](CCC(=O)O)C(=O)O)C(=O)O)C(=O)N1CCN(C(=O)c2cc(Cc3n[nH]c(=O)c4ccccc34)ccc2F)CC1`, the figures for the IC50 in the series with CWR22R and with LNCaP were 265 µM and 242 µM, respectively. Also, the CC50 in the series with PC-3 was greater than 1000 µM. In addition, in series [1], the CC50 at 72 h was greater than 1000 µM.
As to `O=C(O)CC[C@H](NC(=O)N[C@@H](CCCCNC(=O)N1CCN(C(=O)c2cc(Cc3n[nH]c(=O)c4ccccc34)ccc2F)CC1)C(=O)O)C(=O)O`, the IC50 in the series on CWR22R was found to be 314 µM; with LNCaP, 251 µM. Moreover, in the series on PC-3, the CC50 is greater than 1000 µM. In addition, the CC50 at 72 h in series [1] was greater than 1000 µM.
As to `O=C(O)CC[C@H](NC(=O)N[C@@H](CCCCNC(=O)CCC(=O)N[C@@H](C(=O)N1CCN(C(=O)c2cc(Cc3n[nH]c(=O)c4ccccc34)ccc2F)CC1)c1ccccc1)C(=O)O)C(=O)O`, the IC50 in the series with CWR22R came out at 162 µM; with LNCaP it was 173 µM. Besides, the CC50 with PC-3 is greater than 1000 µM. Also, in series [1], the CC50 at 72 h is greater than 1000 µM.
On to `CC(C)[C@H](NC(=O)CCC(=O)NCCCC[C@H](NC(=O)N[C@@H](CCC(=O)O)C(=O)O)C(=O)O)C(=O)N1CCN(C(=O)c2cc(Cc3n[nH]c(=O)c4ccccc34)ccc2F)CC1`, for which the values for the IC50 in the series with CWR22R and in the series on LNCaP were 122 µM and 111 µM, respectively. Moreover, the CC50 in the series with PC-3 was greater than 1000 µM. The CC50 at 72 h in series [1] is greater than 1000 µM.
Regarding `O=C(O)CC[C@H](NC(=O)N[C@@H](CCCCNC(=O)CCCNC(=O)N1CCN(C(=O)c2cc(Cc3n[nH]c(=O)c4ccccc34)ccc2F)CC1)C(=O)O)C(=O)O`, the IC50 in the series with CWR22R came to 337 µM; in the series with LNCaP, 300 µM. Besides, the CC50 with PC-3 is greater than 1000 µM. Also, in series [1], the CC50 at 72 h was greater than 1000 µM.
On to `O=C(O)CC[C@H](NC(=O)N[C@@H](CCCCNC(=O)CCSSCCC(=O)N1CCN(C(=O)c2cc(Cc3n[nH]c(=O)c4ccccc34)ccc2F)CC1)C(=O)O)C(=O)O`, for which the IC50 is 432 µM with CWR22R and 259 µM in the series with LNCaP. Moreover, in the series on PC-3, the CC50 was greater than 1000 µM. Besides, the CC50 at 72 h in series [1] was greater than 1000 µM.
Consider `CC(C)[C@@H](NC(=O)CCC(=O)NCCCC[C@H](NC(=O)N[C@@H](CCC(=O)O)C(=O)O)C(=O)O)C(=O)N1CCN(C(=O)c2cc(Cc3n[nH]c(=O)c4ccccc34)ccc2F)CC1`, for which the IC50 turned out to be 128 µM with CWR22R and 121 µM with LNCaP. In the series on PC-3, the CC50 is greater than 1000 µM. For the same compound, in series [1], the CC50 at 72 h is greater than 1000 µM.
On to `O=C(O)CC[C@H](NC(=O)N[C@@H](CCCCNC(=O)CCC(=O)NCC(=O)N1CCN(C(=O)c2cc(Cc3n[nH]c(=O)c4ccccc34)ccc2F)CC1)C(=O)O)C(=O)O`, for which the values for the IC50 in the series on CWR22R and in the series with LNCaP were 126 µM and 147 µM, respectively. Also, in the series on PC-3, the CC50 was greater than 1000 µM. Also, the CC50 at 72 h in series [1] was greater than 1000 µM.
`O=C(O)CC[C@H](NC(=O)N[C@@H](CCCCNC(=O)CCOC(=O)N1CCN(C(=O)c2cc(Cc3n[nH]c(=O)c4ccccc34)ccc2F)CC1)C(=O)O)C(=O)O`: the figures for the IC50 in the series with CWR22R and with LNCaP were 289 µM and 182 µM, respectively. For the same compound, the CC50 with PC-3 is greater than 1000 µM. For the same compound, the CC50 at 72 h in series [1] was greater than 1000 µM.
`O=C(O)CC[C@H](NC(=O)N[C@@H](CCCCNC(=O)CCCC(=O)N1CCN(C(=O)c2cc(Cc3n[nH]c(=O)c4ccccc34)ccc2F)CC1)C(=O)O)C(=O)O`: the figures for the IC50 with CWR22R and with LNCaP were 139 µM and 96.6 µM, respectively. The CC50 in the series with PC-3 was greater than 1000 µM. Moreover, the CC50 at 72 h in series [1] is greater than 1000 µM.
As for `O=C(O)CC[C@H](NC(=O)N[C@@H](CCCCNC(=O)CCC(=O)N[C@@H](CO)C(=O)N1CCN(C(=O)c2cc(Cc3n[nH]c(=O)c4ccccc34)ccc2F)CC1)C(=O)O)C(=O)O`, the IC50 in the series on CWR22R was found to be 209 µM; with LNCaP, 202 µM. For the same compound, the CC50 in the series on PC-3 is greater than 1000 µM. Besides, the CC50 at 72 h in series [1] is greater than 1000 µM.
`O=C(O)CC[C@H](NC(=O)N[C@@H](CCCCNC(=O)CCC(=O)N[C@@H](Cc1ccccc1)C(=O)N1CCN(C(=O)c2cc(Cc3n[nH]c(=O)c4ccccc34)ccc2F)CC1)C(=O)O)C(=O)O`: the IC50 in the series on CWR22R turned out to be 132 µM; with LNCaP, 152 µM. The CC50 in the series on PC-3 is greater than 1000 µM. Moreover, the CC50 at 72 h in series [1] is greater than 1000 µM.
Regarding `O=C(O)CC[C@H](NC(=O)N[C@@H](CCCCNC(=O)CCCCCCC(=O)N1CCN(C(=O)c2cc(Cc3n[nH]c(=O)c4ccccc34)ccc2F)CC1)C(=O)O)C(=O)O`, the figures for the IC50 in the series on CWR22R and with LNCaP were 137 µM and 99.9 µM, respectively. The CC50 with PC-3 is greater than 1000 µM. The CC50 at 72 h in series [1] was greater than 1000 µM.
As to `CSCC[C@H](NC(=O)CCC(=O)NCCCC[C@H](NC(=O)N[C@@H](CCC(=O)O)C(=O)O)C(=O)O)C(=O)N1CCN(C(=O)c2cc(Cc3n[nH]c(=O)c4ccccc34)ccc2F)CC1`, the values for the IC50 with CWR22R and in the series with LNCaP were 175 µM and 190 µM, respectively. For the same compound, the CC50 in the series with PC-3 is greater than 1000 µM. For the same compound, the CC50 at 72 h in series [1] is greater than 1000 µM.
In the case of `C[C@H](NC(=O)CCC(=O)NCCCC[C@H](NC(=O)N[C@@H](CCC(=O)O)C(=O)O)C(=O)O)C(=O)N1CCN(C(=O)c2cc(Cc3n[nH]c(=O)c4ccccc34)ccc2F)CC1`, the IC50 in the series with CWR22R was 133 µM; with LNCaP, 129 µM. The CC50 with PC-3 is greater than 1000 µM. The CC50 at 72 h in series [1] is greater than 1000 µM.
In the case of `CC(C)C[C@H](NC(=O)CCC(=O)NCCCC[C@H](NC(=O)N[C@@H](CCC(=O)O)C(=O)O)C(=O)O)C(=O)N1CCN(C(=O)c2cc(Cc3n[nH]c(=O)c4ccccc34)ccc2F)CC1`, the IC50 came to 113 µM in the series on CWR22R and 130 µM with LNCaP. Further, the CC50 with PC-3 was greater than 1000 µM. Besides, the CC50 at 72 h in series [1] was greater than 1000 µM.
Turning to `O=C(O)CC[C@H](NC(=O)N[C@@H](CCCCNC(=O)c1cc(Cc2n[nH]c(=O)c3ccccc23)ccc1F)C(=O)O)C(=O)O`, the values for the IC50 in the series on CWR22R and in the series on LNCaP were 455 µM and 283 µM, respectively. Further, the CC50 in the series on PC-3 was greater than 1000 µM. In addition, the CC50 at 72 h in series [1] was greater than 1000 µM.
Consider `O=C(O)CC[C@H](NC(=O)N[C@@H](CCCCNC(=O)CCN1CCN(C(=O)c2cc(Cc3n[nH]c(=O)c4ccccc34)ccc2F)CC1)C(=O)O)C(=O)O`, for which the IC50 was 286 µM with CWR22R and 284 µM in the series on LNCaP. For the same compound, the CC50 with PC-3 is greater than 1000 µM. For the same compound, the CC50 at 72 h in series [1] is greater than 1000 µM.

As usually defined, the IC50 is the midpoint of a concentration-inhibition curve. The term CC50 denotes the concentration giving 50% cytotoxicity.
